Results on 44 compounds are retold here after patent publication US10208021B2, “Substituted tetrahydroisoquinoline compounds as factor XIa inhibitors” (BRISTOL-MYERS SQUIBB COMPANY, priority 2011, dated 2019).

Where a name gives a salt, the structure may show the parent alone.

A word on the Ki: it is a dissociation constant, usually derived from enzyme kinetics or from competition with a known ligand. Low readings indicate a stronger hold on the target, high ones a looser hold on the target.

This assay addresses purified human Factor XIa (Homo sapiens (Human), UniProt P03951). Put plainly: Factor XIa chromogenic substrate (S-2366) inhibition assay. Format: biochemical. On the procedure: The effectiveness of compounds of the present invention as inhibitors of the coagulation factors XIa, VIIa, IXa, Xa, XIIa, plasma kallikrein or thrombin, can be determined using a relevant purified serine protease, respectively, and an appropriate synthetic substrate. The rate of hydrolysis of the chromogenic or fluorogenic substrate by the relevant serine protease was measured both in the absence and presence of compounds of the present invention. […] A decrease in the rate of absorbance or fluorescence change in the presence of inhibitor is indicative of enzyme inhibition. Such methods are known to one skilled in the art. The results of this assay are expressed as the inhibitory constant, Ki. […] JT Baker or Fisher Scientific). […] Values of Ki were determined by allowing the protease to react with the substrate in the presence of the inhibitor. Reactions were allowed to go for periods of 20-180 minutes (depending on the protease) and the velocities (rate of absorbance or fluorescence change versus time) were measured.

Where [1] appears, read: substrate S-2366, activity ranges, Table A.

Chain of purified human Factor XIa (P03951 388-625): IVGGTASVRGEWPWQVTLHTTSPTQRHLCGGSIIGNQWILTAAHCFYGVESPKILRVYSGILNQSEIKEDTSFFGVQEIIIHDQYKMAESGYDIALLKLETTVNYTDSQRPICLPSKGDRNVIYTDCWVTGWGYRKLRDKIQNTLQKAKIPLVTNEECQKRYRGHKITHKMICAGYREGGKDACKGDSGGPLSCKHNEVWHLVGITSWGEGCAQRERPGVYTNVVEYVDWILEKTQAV
Chain of purified human Factor XIa (P03951 19-387 partner): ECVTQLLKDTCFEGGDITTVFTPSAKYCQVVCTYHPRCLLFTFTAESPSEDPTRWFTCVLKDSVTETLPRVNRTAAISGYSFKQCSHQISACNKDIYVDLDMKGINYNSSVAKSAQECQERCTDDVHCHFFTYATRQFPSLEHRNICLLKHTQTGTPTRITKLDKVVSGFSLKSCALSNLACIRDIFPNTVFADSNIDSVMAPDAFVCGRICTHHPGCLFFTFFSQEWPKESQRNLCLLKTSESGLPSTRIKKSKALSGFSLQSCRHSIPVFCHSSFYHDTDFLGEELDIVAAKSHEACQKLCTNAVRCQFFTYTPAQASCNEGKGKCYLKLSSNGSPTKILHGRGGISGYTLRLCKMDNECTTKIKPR

On to `CN(C)[C@H]1CCN(c2cccc3c2CCN(C(=O)/C=C/c2c(-n4cnnn4)ccc(Cl)c2F)[C@H]3C(=O)Nc2ccc(C(=O)O)cc2)C1` [Example 208, 4-((R)-2-((E)-3-(3-Chloro-2-fluoro-6-(1H-tetrazol-1-yl)phenyl)acryloyl)-5-((S)-3-(dimethylamino)pyrrolidin-1-yl)-1,2,3,4-tetrahydroisoquinoline-1-carboxamido)benzoic acid, bis-TFA salt], for which the Ki under setting [1] was less than 5 nM.
In turn, `O=C(Nc1ccc(F)cc1)C1c2cccc(N3CCNCC3)c2CCN1C(=O)/C=C/c1cc(Cl)ccc1-n1cnnn1` (centres unmarked) [Example 2] registered an inhibitory constant (Ki) under setting [1] of 100 to 500 nM.
As to `O=C(O)c1ccc(NC(=O)[C@@H]2c3cccc(N4CCC(O)CC4)c3CCN2C(=O)/C=C/c2c(-n3cnnn3)ccc(Cl)c2F)cc1` [Example 149], the Ki under setting [1] was less than 5 nM.
`CCOC(=O)c1ccc(NC(=O)C2c3cccc(N4CCC(N5CCCC5)CC4)c3CCN2C(=O)/C=C/c2c(C(C)=O)ccc(Cl)c2F)cc1` (racemic) [Example 160]: the Ki under setting [1] lay in the range of 5 to 10 nM.
On the same count and under the same terms, the result for `CN1CCN(c2cccc3c2CCN(C(=O)/C=C/c2c(-n4cnnn4)ccc(Cl)c2F)C3C(=O)Nc2ccc(C(=O)O)cc2)CCC1=O` (racemic) [Example 264] reads less than 5 nM; that for `COC(=O)Nc1ccc(NC(=O)C2c3cccc(N4CCOCC4)c3CCN2C(=O)/C=C/c2c(-n3cnnn3)ccc(Cl)c2F)cc1` (racemic) [Example 58], 100 to 500 nM; that for `CCCCOC(=O)c1ccc(NC(=O)C2c3cccc(N4CCC(N5CCCC5)CC4)c3CCN2C(=O)/C=C/c2c(-n3cnnn3)ccc(Cl)c2F)cc1` (racemic) [Example 105], less than 5 nM.
With `CCOC(=O)c1ccc(NC(=O)C2c3cccc(N4CCC(N5CCCC5)CC4)c3CCN2C(=O)C=Cc2c(C(C)=O)ccc(Cl)c2F)cc1` (centres unmarked) [Example 169], under “substrate S-2366, Table 1”, the affinity corresponds to a Ki of 517 nM.
Regarding `COC(=O)N1CCN(c2cccc3c2CCN(C(=O)/C=C/c2c(-n4cnnn4)ccc(Cl)c2F)C3C(=O)Nc2ccc(C#N)cc2)CC1` (centres unmarked) [Example 26], under setting [1], the Ki was 5 to 10 nM.
Under setting [1], `O=C(O)c1ccc(NC(=O)C2c3cccc(N4CCC5(CCNC5)CC4)c3CCN2C(=O)/C=C/c2c(C(F)(F)F)ccc(Cl)c2F)cc1` (racemic) [Example 227] showed an inhibition constant (Ki) of less than 5 nM.
Same read-out and setting: to `O=C(O)c1ccc(NC(=O)C2c3cccc(N4CCC(N5CCCC5)CC4)c3CCN2C(=O)/C=C/c2ccccc2F)cc1` (racemic) [Example 181] belongs 5 to 10 nM; to `O=C(O)c1ccc(NC(=O)C2c3cccc(N4CCC(N5CCCC5=O)CC4)c3CCN2C(=O)C=Cc2c(-n3cnnn3)ccc(Cl)c2F)cc1` (centres unmarked) [Example 118], 5 to 10 nM; to `O=C(Nc1ccccc1)c1ccc(NC(=O)C2c3cccc(N4CCNCC4)c3CCN2C(=O)/C=C/c2cc(Cl)c(F)cc2-n2cnnn2)cc1` (racemic) [Example 69], 100 to 500 nM.
The compound `CC(C)(C)OC(=O)c1ccc(NC(=O)C2c3cccc(N4CCOCC4)c3CCN2C(=O)/C=C/c2c(-n3cnnn3)ccc(Cl)c2F)cc1` (racemic) [Example 59] returned a Ki under setting [1] of 5 to 10 nM.
On the same count and under the same terms, the result for `CCOC(=O)c1ccc(NC(=O)C2c3cccc(N4CCN(C)CC4)c3CCN2C(=O)C=Cc2c(-n3cnnn3)ccc(Cl)c2F)cc1` (centres unmarked) [compound 29] reads 5 to 10 nM; that for `COCCCNC(=O)C1c2cccc(N3CCC(N4CCCC4)CC3)c2CCN1C(=O)/C=C/c1c(-n2cnnn2)ccc(Cl)c1F` (racemic) [Example 229], 100 to 500 nM.
For the compound `COC(=O)Nc1ccc(NC(=O)C2c3cccc(N4CCC(N5CCCC5)CC4)c3CCN2C(=O)C=Cc2c(-n3cnnn3)ccc(Cl)c2F)cc1` (centres unmarked) [Example 98], the Ki (substrate S-2366, Table 1) was 632 nM.
In the case of `O=C(O)c1ccc(NC(=O)C2c3cccc(N4CCC(N5CCCC5)CC4)c3CCN2C(=O)C=Cc2c(-n3cnnn3)ccc(Cl)c2F)cc1` (centres unmarked) [Example 87], the inhibitory constant (Ki) under setting [1] was less than 5 nM.
For `CC(=O)c1ccc(Cl)c(F)c1/C=C/C(=O)N1CCc2c(cccc2N2CCC(N3CCCC3)CC2)C1C(=O)Nc1ccc(C(=O)OC(C)(C)C)cc1` (racemic) [Example 153], under setting [1], the inhibition constant (Ki) is 5 to 10 nM.
Under setting [1], `O=C(O)c1ccc(NC(=O)C2c3cccc(N4CCC(N5CCCC5=O)CC4)c3CCN2C(=O)/C=C/c2c(-n3cnnn3)ccc(Cl)c2F)cc1` (racemic) [Example 96] returned a Ki of less than 5 nM.
Under setting [1], `CCOC(=O)c1ccc(NC(=O)C2c3cccc(N4CCC5(CCN(C)C5=O)CC4)c3CCN2C(=O)/C=C/c2c(-n3cnnn3)ccc(Cl)c2F)cc1` (racemic) [Example 109] registered a Ki of 5 to 10 nM.
Consider `O=C(O)c1ccc(NC(=O)C2c3cccc(N4CCC(N5CCCC5)CC4)c3CCN2C(=O)C=Cc2c(-n3cnnn3)ccc(Cl)c2F)cc1` (centres unmarked) [Example 88], for which, under setting [1], the Ki is 5 to 10 nM.
Under setting [1], `CCOC(=O)c1ccc(NC(=O)C2c3cccc(N4CCC5(CCN(C)C5=O)CC4)c3CCN2C(=O)C=Cc2c(-n3cnnn3)ccc(Cl)c2F)cc1` (centres unmarked) [Example 110] displayed a Ki of 5 to 10 nM.
On to `COC1CCN(c2cccc3c2CCN(C(=O)/C=C/c2c(-n4cnnn4)ccc(Cl)c2F)C3C(=O)Nc2ccc(C(=O)O)cc2)CC1` (racemic) [Example 150], for which the inhibition constant (Ki) under setting [1] is less than 5 nM.
Under setting [1], `O=C(O)c1ccc(NC(=O)C2c3cccc(N4CCC(N5CCCC5)CC4)c3CCN2C(=O)/C=C/c2c(F)ccc(F)c2F)cc1` (racemic) [Example 182] gave a Ki of 5 to 10 nM.
Under setting [1], `CN(C)[C@H]1CCN(c2cccc3c2CCN(C(=O)/C=C/c2c(-n4cnnn4)ccc(Cl)c2F)[C@@H]3C(=O)Nc2ccc(C(=O)OC(C)(C)C)cc2)C1` [Example 207, tert-butyl 4-((S)-2-((E)-3-(3-chloro-2-fluoro-6-(1H-tetrazol-1-yl)phenyl)acryloyl)-5-((S)-3-(dimethylamino)pyrrolidin-1-yl)-1,2,3,4-tetrahydroisoquinoline-1-carboxamido)benzoate, bis TFA salt] returned a Ki of 5 to 10 nM.
`O=C(O)c1ccc(NC(=O)[C@H]2c3cccc(N4CCC(C(=O)N5CCCC5)CC4)c3CCN2C(=O)/C=C/c2c(-n3cnnn3)ccc(Cl)c2F)cc1` [Example 132] gave a Ki under setting [1] of 100 to 500 nM.
The compound `CC(=O)c1ccc(Cl)c(F)c1/C=C/C(=O)N1CCc2c(cccc2N2CCN(C)CC2)C1C(=O)Nc1ccc(C(=O)O)cc1` (centres unmarked) [Example 79, (E)-4-(2-(3-(6-acetyl-3-chloro-2-fluorophenyl)acryloyl)-5-(4-methylpiperazin-1-yl)-1,2,3,4-tetrahydroisoquinoline-1-carboxamido)benzoic acid, bis-TFA Salt] registered a Ki under setting [1] of less than 5 nM.
For the compound `CNC(=O)c1ccc(NC(=O)C2c3cccc(N4CCNCC4)c3CCN2C(=O)/C=C/c2cc(Cl)c(F)cc2-n2cnnn2)cc1` (racemic) [Example 77], the Ki under setting [1] was 100 to 500 nM.
Regarding `O=C(Nc1ccc(F)cc1)C1c2cccc(N3CCNCC3)c2CCN1C(=O)/C=C/c1c(-n2cnnn2)ccc(Cl)c1F` (centres unmarked) [Example 5], the Ki under setting [1] lay within 5 to 10 nM.
For `CCOC(=O)c1ccc(NC(=O)C2c3cccc(N4CCOCC4)c3CCN2C(=O)C=Cc2c(-n3cnnn3)ccc(Cl)c2F)cc1` (centres unmarked) [Example 186], the Ki under setting [1] fell in the range of 500 to 5000 nM.
Regarding `CCOC(=O)c1ccc(NC(=O)C2c3cccc(N4CCC(N5CCCC5)CC4)c3CCN2C(=O)C=Cc2c(-n3cnnn3)ccc(Cl)c2F)cc1` (centres unmarked) [Example 94], for the setting “substrate S-2366, Table 1”, the Ki is less than 5 nM.
Same read-out and setting: to `O=C(O)c1ccc(NC(=O)C2c3cccc(N4CCN(C(=O)OCc5ccccc5)CC4=O)c3CCN2C(=O)/C=C/c2c(-n3cnnn3)ccc(Cl)c2F)cc1` (racemic) [Example 52] belongs less than 5 nM.
For `CCOC(=O)c1ccc(NC(=O)C2c3cccc(N4CCN(C(=O)OC(C)(C)C)CC4=O)c3CCN2C(=O)/C=C/c2c(-n3cnnn3)ccc(Cl)c2F)cc1` (racemic) [Example 56], the Ki under setting [1] was 5 to 10 nM.
In turn, `CCOC(=O)c1ccc(NC(=O)C2c3cccc(N4CCC(N5CCCC5)CC4)c3CCN2C(=O)/C=C/c2c(C#N)ccc(Cl)c2F)cc1` (racemic) [Example 165] came in with a Ki under setting [1] of 5 to 10 nM.
`CN1CCN(c2cccc3c2CCN(C(=O)/C=C/c2c(-n4cnnn4)ccc(Cl)c2F)C3C(=O)Nc2ccc(C(=O)O)cc2)CC1` (centres unmarked) [Example 18] yielded a Ki under setting [1] of less than 5 nM.
Under setting [1], `O=C(NCCc1c[nH]cn1)c1ccc(NC(=O)C2c3cccc(N4CCNCC4)c3CCN2C(=O)/C=C/c2cc(Cl)c(F)cc2-n2cnnn2)cc1` (racemic) [Example 68] had a Ki of 100 to 500 nM.
Compound `O=C(Nc1ccc(F)cc1)C1c2cccc(N3CCC(N4CCCC4)CC3)c2CCN1C(=O)/C=C/c1c(-n2cnnn2)ccc(Cl)c1F` (racemic) [Example 82] had a Ki under setting [1] of less than 5 nM.
In turn, `O=C(OC1CCCC1)c1ccc(NC(=O)C2c3cccc(N4CCC(N5CCCC5)CC4)c3CCN2C(=O)/C=C/c2c(-n3cnnn3)ccc(Cl)c2F)cc1` (racemic) [Example 124] yielded a Ki under setting [1] of less than 5 nM.
`CC(C)OC(=O)c1ccc(NC(=O)C2c3cccc(N4CCC(N5CCCC5)CC4)c3CCN2C(=O)/C=C/c2c(-n3cnnn3)ccc(Cl)c2F)cc1` (racemic) [Example 122] registered a Ki under setting [1] of less than 5 nM.
`NC1CCN(c2cccc3c2CCN(C(=O)/C=C/c2c(-n4cnnn4)ccc(Cl)c2F)C3C(=O)Nc2ccc(C(=O)O)cc2)CC1` (racemic) [Example 97]: the Ki under setting [1] is less than 5 nM.
As to `CCOC(=O)c1ccc(NC(=O)C2c3cccc(N4CCN(C)CC4)c3CCN2C(=O)C=Cc2c(-n3cnnn3)ccc(Cl)c2F)cc1` (centres unmarked) [compound 28], where the note is “substrate S-2366, Table 1”, the Ki was found to be 1220 nM.
As to `CN(C)C(=O)C1CCN(c2cccc3c2CCN(C(=O)/C=C/c2c(-n4cnnn4)ccc(Cl)c2F)C3C(=O)Nc2ccc(C(=O)O)cc2)CC1` (racemic) [Example 100], the Ki under setting [1] was less than 5 nM.
Consider `O=C(O)c1ccc(NC(=O)C2c3cccc(N4CCC5(CCN(Cc6ccccc6)C5=O)CC4)c3CCN2C(=O)/C=C/c2c(-n3cnnn3)ccc(Cl)c2F)cc1` (racemic) [Example 121], for which the Ki under setting [1] was less than 5 nM.
